Reference: patent US20250268736A1, “VASCULAR STENT AND MANUFACTURING PROCESS THEREFOR” (THE SECOND AFFILIATED HOSPITAL OF GUANGZHOU MEDICAL …, priority 2024, published 2025)

Key:
[1] = system: neutrophils on HCAECs; test: Adhesion of neutrophils to HCAECs on coated 316 L stainless steel; assay type: cell-based, human; conditions: PLGA slow-release coating on 316 L steel, co-culture 1 h; activators in combination with rapamycin
Method: (§1) The effect of APC on a simulated stent environment of PLGA slow-release coating on a 316 L steel sheet is investigated. Slow-release coatings of a solvent control (tetrahydrofuran, THF) wrapped in poly(lactic-co-glycolic acid) (PLGA 75:25), rapamycin (50 μg/mL), APC (50 μg/mL), 40 μM of TR47, and 20 μM of Parmodulin 2, or each in combination with rapamycin (50 μg/mL) are coated on surfaces of 316 L stainless steel plates respectively.
(§2) After HCAECs are grown on the 316 L stainless steel plate for 48 h, the cell viability is tested by a CCK-8 method, the cell multiplication capacity is tested by an EdU method, and the cell migration capacity is tested by a scratch method. […] Calcein-AM staining is followed by fluorescence microscopy.
(§3) The above cells are inoculated on 316 SS, 316 L SS/Rapamycin, 316 L SS/Rapamycin/APC, 316 L SS/Rapamycin/TR47, and 316 L SS/Rapamycin/Parmodulin 2 in a 24-well plate at a density of 2×10^4 cells/mL. 10 μL of CCK-8 reaction solution is added to a 24-well plate according to CCK-8 instructions, and the optical density value (OD value) is measured at 4 h by a spectrophotometer with a wavelength of 450 nm. For EdU analysis, reagent A is added a medium in a 24-well plate and cultured at 37° C. for 4 h to label EdU, and then, cells are captured with a fluorescence microscope (EVOS FL) according to manufacturer's instructions. […]

[2] = system: HCAECs; test: Scratch migration of HCAECs on coated 316 L stainless steel; assay type: cell-based, human; conditions: PLGA slow-release coating, 48 h, scratch method; rapamycin 50 μg/mL; activators in combination with rapamycin
Method: as §1
After HCAECs are grown on the 316 L stainless steel plate for 48 h, the cell viability is tested by a CCK-8 method, the cell multiplication capacity is tested by an EdU method, and the cell migration capacity is tested by a scratch method. The HCAECs are co-cultured with neutrophils (10^6/well) or platelets (5×10^6/well) labeled with 2 μM of PKH-26 for 1 h. Calcein-AM staining is followed by fluorescence microscopy.

[3] = system: HCAECs; test: CCK-8 viability of HCAECs on coated 316 L stainless steel; assay type: cell-based, human; conditions: PLGA slow-release coating, 48 h, rapamycin 50 μg/mL, activators in combination with rapamycin
Method: as §1, §2, §3

[4] = system: HCAECs; test: Growth of HCAECs on coated 316 L stainless steel (stent simulation environment); assay type: cell-based, human; conditions: PLGA slow-release coating, 48 h; rapamycin 50 μg/mL; activators (APC 50 μg/mL, TR47 40 μM, Parmodulin 2 20 μM) in combination with rapamycin
Method: as §1, §2, §3

[5] = system: platelets on HCAECs; test: Adhesion of platelets to HCAECs on coated 316 L stainless steel; assay type: cell-based, human; conditions: PLGA slow-release coating on 316 L steel, co-culture 1 h; activators in combination with rapamycin
Method: as §1, §2, §3

[6] = system: HCAECs; test: EdU multiplication of HCAECs on coated 316 L stainless steel; assay type: cell-based, human; conditions: PLGA slow-release coating, 48 h, rapamycin 50 μg/mL, activators in combination with rapamycin
Method: as §1, §2, §3

[7] = system: endothelial protein C receptor (EPCR); test: Western blotting of EPCR expression and EPCR pathway in HCAECs treated with EPCR activators, alone or with rapamycin; assay type: cell-based, human; conditions: for activation of the EPCR pathway in HCAECs / protein expression of the EPCR in HCAECs: 10 μM APC, 40 μM TR47, 20 μM Parmodulin 2, 24 h; for effect on the rapamycin-induced inhibition of the EPCR in HCAECs: activator in combination with 100 nM rapamycin, 24 h
Method: Specifically, HCAECs are cultured in an EBM-2 (Lonza, CC3156) supplemented with a 3% fetal bovine serum (FBS) and endothelial growth factor supplement mixture (Lonza, CC4176) under standard cell culture conditions (37° C., 5% of CO2), and cells of generations of P3-5 are tested at 70%-80%. HCAECs are treated with 10 μM of APC, 40 μM of TR47 and 20 μM of Parmodulin 2, or each in combination with 100 nM of rapamycin for 24 h, and then, western blotting is performed for testing protein expression.

[8] = system: endothelial protein C receptor (EPCR); test: Western blotting of EPCR protein expression in HCAECs treated with limus drugs or paclitaxel; assay type: cell-based, human; conditions: 24 h
Method: (§4) Specifically, HCAECs are cultured in an endothelial cell basal medium (EBM)-2 (Lonza, CC3156) supplemented with a 3% fetal bovine serum (FBS) and endothelial growth factor supplement mixture (Lonza, CC4176) under standard cell culture conditions (37° C., 5% CO2), and P3-5 cells are tested at 70%-80%. Western blotting is performed to test protein expression after HCAECs are treated with rapamycin, zotarolimus, everolimus, and paclitaxel at the doses shown in FIG. 1, or 100 nM of tacrolimus, deforolimus, biolimus A9, and pimecrolimus for 24 h. Alternatively, C57BL6/J mice received rapamycin, zotarolimus, everolimus, and paclitaxel at 2 mg/kg of body weight daily via tail vein injection for 2 weeks, and immunofluorescence observation of tissues is performed.

[9] = system: endothelial protein C receptor (EPCR); test: Immunofluorescence of EPCR in mouse cardiac vessels after tail vein injection; assay type: in vivo; conditions: C57BL6/J mice, 2 mg/kg daily via tail vein injection for 2 weeks
Method: as §4

[10] = system: vascular smooth muscle cells (HCASMCs, HASMCs); test: EdU cell multiplication of vascular smooth muscle cells; assay type: cell-based, human; conditions: APC 10 μM
Method: (§5) Generations 3-5 of primary human coronary artery smooth muscle cells (HCASMCs) are cultured in a growth medium (Cell applications, cat #31-500). Human arterial smooth muscle cells (HASMCs) are cultured in a smooth muscle cell culture medium containing 2% of FBS and 1% of penicillin/streptomycin at 37° C. in a humidified atmosphere containing 5% of CO2. Ad-EC or Ad-EPCR infected the cells for 48 h. APC is 10 μM, and rapamycin is 100 nM. Fluorescence is observed by a microscope. Protein expression is tested by means of western blotting. The cell viability is tested by means of CCK-8, the cell multiplication capacity is observed by means of EdU, and the migration capacity is evaluated by means of Transwel chamber and scratch tests.

[11] = system: vascular smooth muscle cells (HCASMCs, HASMCs); test: CCK-8 cell viability of vascular smooth muscle cells; assay type: cell-based, human; conditions: APC 10 μM
Method: as §5

[12] = system: vascular smooth muscle cells (HCASMCs, HASMCs); test: Transwel chamber and scratch migration tests of vascular smooth muscle cells; assay type: cell-based, human; conditions: APC 10 μM
Method: as §5

[13] = doses shown in FIG. 1, western blotting

CCCC(=O)Nc1cccc(NC(=O)c2ccccc2Br)c1 [Parmodulin 2]
adhesion of neutrophils to surface of ECs [1]: inhibit adhesion | migration of HCAECs on 316 L stainless steel [2]: restore | viability of HCAECs on 316 L stainless steel [3]: restore | growth of HCAECs on 316 L stainless steel [4]: restore | adhesion of platelets to surface of ECs [5]: inhibit adhesion | multiplication of HCAECs on 316 L stainless steel [6]: restore | activation of the EPCR pathway in HCAECs [7]: protectively activate the EPCR pathway | protein expression of the EPCR in HCAECs [7]: induce protein expression of the EPCR in the cells | effect on the rapamycin-induced inhibition of the EPCR in HCAECs [7]: antagonize the inhibitory effect of limus drugs such as rapamycin on the EPCR

CCOCCO[C@@H]1CC[C@@H](C[C@@H](C)[C@@H]2CC(=O)[C@H](C)/C=C(\C)[C@@H](O)[C@@H](OC)C(=O)[C@H](C)C[C@H](C)/C=C/C=C/C=C(\C)[C@@H](OC)C[C@@H]3CC[C@@H](C)[C@@](O)(O3)C(=O)C(=O)N3CCCC[C@H]3C(=O)O2)C[C@H]1OC [biolimus A9]
expression of EPCR in HCAECs ([8]; 100 nM, western blotting): inhibit expression of the EPCR in HCAECs

CO[C@H]1C[C@@H]2CC[C@@H](C)[C@@](O)(O2)C(=O)C(=O)N2CCCC[C@H]2C(=O)O[C@H]([C@H](C)C[C@@H]2CC[C@@H](OP(C)(C)=O)[C@H](OC)C2)CC(=O)[C@H](C)/C=C(\C)[C@@H](O)[C@@H](OC)C(=O)[C@H](C)C[C@H](C)/C=C/C=C/C=C/1C [deforolimus]
expression of EPCR in HCAECs ([8]; 100 nM, western blotting): inhibit expression of the EPCR in HCAECs

CO[C@H]1C[C@@H]2CC[C@@H](C)[C@@](O)(O2)C(=O)C(=O)N2CCCC[C@H]2C(=O)O[C@H]([C@H](C)C[C@@H]2CC[C@@H](OCCO)[C@H](OC)C2)CC(=O)[C@H](C)/C=C(\C)[C@@H](O)[C@@H](OC)C(=O)[C@H](C)C[C@H](C)/C=C/C=C/C=C/1C [everolimus]
expression of EPCR in mouse cardiac vessels [9]: inhibit expression of the EPCR in mouse cardiac vessels | expression of EPCR in HCAECs [8, 13]: inhibit expression of an EPCR in HCAECs in a concentration-dependent manner

CC(=O)O[C@H]1C(=O)[C@@]2(C)[C@H]([C@H](OC(=O)c3ccccc3)[C@]3(O)C[C@H](OC(=O)[C@H](O)[C@@H](NC(=O)c4ccccc4)c4ccccc4)C(C)=C1C3(C)C)[C@]1(OC(C)=O)CO[C@@H]1C[C@@H]2O [paclitaxel]
expression of EPCR in mouse cardiac vessels [9]: inhibit expression of the EPCR in mouse cardiac vessels | expression of EPCR in HCAECs [8, 13]: inhibit expression of an EPCR in HCAECs in a concentration-dependent manner

CC[C@@H]1/C=C(\C)C[C@H](C)C[C@H](OC)[C@H]2O[C@@](O)(C(=O)C(=O)N3CCCC[C@H]3C(=O)O[C@H](/C(C)=C/[C@@H]3CC[C@H](Cl)[C@H](OC)C3)[C@H](C)[C@@H](O)CC1=O)[C@H](C)C[C@@H]2OC [pimecrolimus]
expression of EPCR in HCAECs ([8]; 100 nM, western blotting): inhibit expression of the EPCR in HCAECs

C=CC[C@@H]1/C=C(\C)C[C@H](C)C[C@H](OC)[C@H]2O[C@@](O)(C(=O)C(=O)N3CCCC[C@H]3C(=O)O[C@H](/C(C)=C/[C@@H]3CC[C@@H](O)[C@H](OC)C3)[C@H](C)[C@@H](O)CC1=O)[C@H](C)C[C@@H]2OC [tacrolimus]
expression of EPCR in HCAECs ([8]; 100 nM, western blotting): inhibit expression of the EPCR in HCAECs

CO[C@H]1C[C@@H]2CC[C@@H](C)[C@@](O)(O2)C(=O)C(=O)N2CCCC[C@H]2C(=O)O[C@H]([C@H](C)C[C@@H]2CC[C@H](n3cnnn3)[C@H](OC)C2)CC(=O)[C@H](C)/C=C(\C)[C@@H](O)[C@@H](OC)C(=O)[C@H](C)C[C@H](C)/C=C/C=C/C=C/1C [zotarolimus]
expression of EPCR in mouse cardiac vessels [9]: inhibit expression of the EPCR in mouse cardiac vessels | expression of EPCR in HCAECs [8, 13]: inhibit expression of an EPCR in HCAECs in a concentration-dependent manner

activated protein C [APC]
adhesion of neutrophils to surface of ECs [1]: inhibit adhesion | multiplication capacity of vascular smooth muscle cells [10]: does not affect | migration of HCAECs on 316 L stainless steel [2]: restore | viability of HCAECs on 316 L stainless steel [3]: restore | cell viability of vascular smooth muscle cells [11]: does not affect | growth of HCAECs on 316 L stainless steel [4]: restore | adhesion of platelets to surface of ECs [5]: inhibit adhesion | multiplication of HCAECs on 316 L stainless steel [6]: restore | migration capacity of vascular smooth muscle cells [12]: does not affect | activation of the EPCR pathway in HCAECs [7]: protectively activate the EPCR pathway | protein expression of the EPCR in HCAECs [7]: induce protein expression of the EPCR in the cells | effect on the rapamycin-induced inhibition of the EPCR in HCAECs [7]: antagonize the inhibitory effect of limus drugs such as rapamycin on the EPCR
